Assays:
[1] = biological target: T1, Multidrug resistance-associated protein 1 (Homo sapiens, UniProt P33527); assay: TP_TRANSPORTER: uptake in membrane vesicle from MRP1-expressing HeLa cells; type: functional, cell membranes
[2] = biological target: T1, Multidrug resistance-associated protein 1; assay: TP_TRANSPORTER: inhibition of LTC4 uptake (LTC4: 0.05 uM) in membrane vesicle from MRP1-expressing HeLa cells; type: functional, cell membranes
[3] = biological target: ATP-binding cassette sub-family C member 2 (Homo sapiens, UniProt Q92887); assay: TP_TRANSPORTER: inhibition of LTC4 uptake (LTC4: 0.05 uM) in HepG2 cells; type: functional, cell-based
Sequence of ATP-binding cassette sub-family C member 2 (Homo sapiens, UniProt Q92887) (Q92887 whole entry): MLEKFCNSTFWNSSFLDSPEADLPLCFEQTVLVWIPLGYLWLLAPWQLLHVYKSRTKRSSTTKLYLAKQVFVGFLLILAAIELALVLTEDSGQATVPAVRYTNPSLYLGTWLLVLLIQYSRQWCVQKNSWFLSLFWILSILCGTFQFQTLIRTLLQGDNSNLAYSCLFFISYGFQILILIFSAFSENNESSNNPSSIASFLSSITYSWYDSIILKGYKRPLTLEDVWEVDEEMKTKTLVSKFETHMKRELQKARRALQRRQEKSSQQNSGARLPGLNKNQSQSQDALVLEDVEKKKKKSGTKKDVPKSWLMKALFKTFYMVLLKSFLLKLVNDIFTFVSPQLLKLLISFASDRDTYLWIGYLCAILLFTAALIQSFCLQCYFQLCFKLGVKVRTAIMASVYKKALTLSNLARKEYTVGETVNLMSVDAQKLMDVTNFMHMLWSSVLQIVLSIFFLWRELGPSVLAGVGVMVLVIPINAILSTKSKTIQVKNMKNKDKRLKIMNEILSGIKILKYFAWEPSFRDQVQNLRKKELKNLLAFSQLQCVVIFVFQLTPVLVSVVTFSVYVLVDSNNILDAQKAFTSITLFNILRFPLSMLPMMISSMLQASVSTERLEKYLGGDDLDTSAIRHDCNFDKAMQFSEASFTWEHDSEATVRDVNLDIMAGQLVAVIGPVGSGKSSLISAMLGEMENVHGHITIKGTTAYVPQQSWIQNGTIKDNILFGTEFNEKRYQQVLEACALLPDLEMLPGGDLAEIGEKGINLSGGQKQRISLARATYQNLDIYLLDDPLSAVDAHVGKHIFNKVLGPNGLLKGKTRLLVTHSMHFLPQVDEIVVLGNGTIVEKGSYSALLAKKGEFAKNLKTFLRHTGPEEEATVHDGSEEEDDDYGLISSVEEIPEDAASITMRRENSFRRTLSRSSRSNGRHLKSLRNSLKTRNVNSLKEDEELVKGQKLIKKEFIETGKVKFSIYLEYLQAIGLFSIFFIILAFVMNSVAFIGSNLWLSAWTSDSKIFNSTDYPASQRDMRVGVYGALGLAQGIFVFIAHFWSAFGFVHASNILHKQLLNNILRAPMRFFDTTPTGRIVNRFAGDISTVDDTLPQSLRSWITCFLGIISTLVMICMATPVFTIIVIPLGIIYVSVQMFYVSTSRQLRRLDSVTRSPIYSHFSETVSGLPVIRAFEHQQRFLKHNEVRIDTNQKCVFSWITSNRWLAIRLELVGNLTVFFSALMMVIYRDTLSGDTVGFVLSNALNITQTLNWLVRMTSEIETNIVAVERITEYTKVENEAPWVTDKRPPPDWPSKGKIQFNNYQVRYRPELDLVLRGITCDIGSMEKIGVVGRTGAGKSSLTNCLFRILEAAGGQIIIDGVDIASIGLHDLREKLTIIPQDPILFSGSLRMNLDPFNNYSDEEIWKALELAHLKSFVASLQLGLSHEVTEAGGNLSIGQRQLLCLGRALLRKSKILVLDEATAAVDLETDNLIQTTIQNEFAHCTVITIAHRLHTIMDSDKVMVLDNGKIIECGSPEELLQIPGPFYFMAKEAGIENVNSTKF

[4] = biological target: T2, ATP-binding cassette sub-family C member 2 (Rattus norvegicus, UniProt Q63120); assay: TP_TRANSPORTER: uptake in bile canalicular membranes from Wistar/TR- rat; type: functional, cell membranes, Bile canalicular membrane
T2 sequence (Q63120 whole entry): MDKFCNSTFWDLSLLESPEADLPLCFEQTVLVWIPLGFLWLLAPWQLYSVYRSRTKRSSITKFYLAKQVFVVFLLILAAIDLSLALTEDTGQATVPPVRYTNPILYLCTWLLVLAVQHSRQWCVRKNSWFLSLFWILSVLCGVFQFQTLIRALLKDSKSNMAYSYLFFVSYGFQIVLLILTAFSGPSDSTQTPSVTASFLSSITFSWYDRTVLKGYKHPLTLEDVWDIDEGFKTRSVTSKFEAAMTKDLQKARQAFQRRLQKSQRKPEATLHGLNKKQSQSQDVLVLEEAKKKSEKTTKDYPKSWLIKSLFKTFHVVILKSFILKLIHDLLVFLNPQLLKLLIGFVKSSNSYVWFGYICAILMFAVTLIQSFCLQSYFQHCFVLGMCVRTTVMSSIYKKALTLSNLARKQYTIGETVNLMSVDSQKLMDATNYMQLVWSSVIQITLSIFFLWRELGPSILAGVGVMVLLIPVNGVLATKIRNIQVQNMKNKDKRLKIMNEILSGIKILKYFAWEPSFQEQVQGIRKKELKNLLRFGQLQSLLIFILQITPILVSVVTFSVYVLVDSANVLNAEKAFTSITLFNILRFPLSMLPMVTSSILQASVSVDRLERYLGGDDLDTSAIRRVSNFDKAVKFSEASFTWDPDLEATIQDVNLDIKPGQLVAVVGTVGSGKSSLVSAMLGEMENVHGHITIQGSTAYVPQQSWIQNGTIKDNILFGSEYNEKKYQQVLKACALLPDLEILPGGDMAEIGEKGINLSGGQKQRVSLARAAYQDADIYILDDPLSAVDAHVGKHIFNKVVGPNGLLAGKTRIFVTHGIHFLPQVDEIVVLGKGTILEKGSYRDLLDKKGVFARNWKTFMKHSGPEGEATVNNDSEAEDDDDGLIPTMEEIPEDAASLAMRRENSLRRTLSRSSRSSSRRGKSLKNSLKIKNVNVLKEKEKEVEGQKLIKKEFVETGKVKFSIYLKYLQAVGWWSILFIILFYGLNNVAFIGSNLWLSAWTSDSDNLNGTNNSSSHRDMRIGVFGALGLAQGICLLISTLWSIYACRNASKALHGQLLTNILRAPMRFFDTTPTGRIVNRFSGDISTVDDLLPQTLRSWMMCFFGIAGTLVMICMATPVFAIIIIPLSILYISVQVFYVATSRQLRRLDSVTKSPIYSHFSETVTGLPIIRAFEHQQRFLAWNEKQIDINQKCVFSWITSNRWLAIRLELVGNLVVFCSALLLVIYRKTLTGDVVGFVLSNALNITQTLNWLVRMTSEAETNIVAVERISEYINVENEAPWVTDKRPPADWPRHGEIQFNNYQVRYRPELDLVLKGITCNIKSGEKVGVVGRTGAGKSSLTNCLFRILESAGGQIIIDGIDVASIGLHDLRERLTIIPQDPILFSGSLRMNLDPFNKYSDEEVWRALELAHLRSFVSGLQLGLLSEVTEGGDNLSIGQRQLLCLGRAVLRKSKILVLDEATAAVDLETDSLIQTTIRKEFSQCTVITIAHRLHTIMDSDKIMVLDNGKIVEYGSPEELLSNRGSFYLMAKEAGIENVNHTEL

[5] = biological target: T2, ATP-binding cassette sub-family C member 2; assay: TP_TRANSPORTER: inhibition of LTC4 uptake (LTC4: 0.05 uM) in bile canalicular membranes from Wistar rat; type: functional, cell membranes, Bile canalicular membrane

T1 sequence (P33527 whole entry): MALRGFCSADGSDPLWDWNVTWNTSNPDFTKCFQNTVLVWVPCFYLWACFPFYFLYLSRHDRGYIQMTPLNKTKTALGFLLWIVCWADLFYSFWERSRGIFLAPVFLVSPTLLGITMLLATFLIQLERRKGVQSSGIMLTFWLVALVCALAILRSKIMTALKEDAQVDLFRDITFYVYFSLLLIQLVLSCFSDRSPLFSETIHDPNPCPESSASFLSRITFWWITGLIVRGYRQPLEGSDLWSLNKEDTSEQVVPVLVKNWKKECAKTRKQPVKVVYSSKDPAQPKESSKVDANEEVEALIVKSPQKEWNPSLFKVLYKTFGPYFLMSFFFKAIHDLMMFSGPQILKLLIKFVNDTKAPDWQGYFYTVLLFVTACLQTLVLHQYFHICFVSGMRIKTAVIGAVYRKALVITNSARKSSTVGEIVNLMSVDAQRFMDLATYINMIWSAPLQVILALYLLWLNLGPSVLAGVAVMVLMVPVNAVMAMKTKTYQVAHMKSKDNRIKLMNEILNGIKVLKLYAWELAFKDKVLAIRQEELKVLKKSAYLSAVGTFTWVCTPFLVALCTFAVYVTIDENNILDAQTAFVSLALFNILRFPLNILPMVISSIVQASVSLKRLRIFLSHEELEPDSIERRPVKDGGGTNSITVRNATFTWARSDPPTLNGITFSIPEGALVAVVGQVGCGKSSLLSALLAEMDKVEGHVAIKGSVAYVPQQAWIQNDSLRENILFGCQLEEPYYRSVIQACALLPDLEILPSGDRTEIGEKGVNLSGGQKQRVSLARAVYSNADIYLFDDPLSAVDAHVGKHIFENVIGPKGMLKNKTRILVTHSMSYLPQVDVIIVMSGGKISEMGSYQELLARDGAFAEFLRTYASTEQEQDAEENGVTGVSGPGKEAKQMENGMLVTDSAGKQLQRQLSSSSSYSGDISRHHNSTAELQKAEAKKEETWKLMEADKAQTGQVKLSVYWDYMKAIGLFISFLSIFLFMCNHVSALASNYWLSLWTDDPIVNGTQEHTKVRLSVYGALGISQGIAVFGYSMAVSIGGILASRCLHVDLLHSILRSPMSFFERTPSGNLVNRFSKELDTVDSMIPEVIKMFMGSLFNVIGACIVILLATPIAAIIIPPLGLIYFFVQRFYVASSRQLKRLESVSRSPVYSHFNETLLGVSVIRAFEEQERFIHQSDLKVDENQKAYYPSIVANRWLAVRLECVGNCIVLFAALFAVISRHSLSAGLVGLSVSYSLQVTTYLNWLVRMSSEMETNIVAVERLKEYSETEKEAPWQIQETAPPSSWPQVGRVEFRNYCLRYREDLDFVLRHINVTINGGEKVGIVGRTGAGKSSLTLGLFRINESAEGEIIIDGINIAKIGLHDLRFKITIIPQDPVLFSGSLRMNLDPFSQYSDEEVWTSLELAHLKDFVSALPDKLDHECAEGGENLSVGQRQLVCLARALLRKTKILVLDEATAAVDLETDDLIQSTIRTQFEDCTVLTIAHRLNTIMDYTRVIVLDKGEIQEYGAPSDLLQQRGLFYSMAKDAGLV

Activity [1]	IC50 [2] [nM]	IC50 [3] [nM]	Activity [4]	IC50 [5] [nM]	SMILES
substrate [+]	750	400	substrate [+]	100	C=CC1=C(C)/C(=C/c2[nH]c(Cc3[nH]c(/C=C4\NC(=O)C(C)=C4C=C)c(C)c3CCC(=O)O[C@@H]3O[C@@H](C(=O)O)[C@H](O)[C@@H](O)[C@@H]3O)c(CCC(=O)O[C@@H]3O[C@H](C(=O)O)[C@H](O)[C@H](O)[C@@H]3O)c2C)NC1=O
substrate [+]	420	280	substrate [+]	120	C=CC1=C(C)/C(=C/c2[nH]c(Cc3[nH]c(/C=C4\NC(=O)C(C)=C4C=C)c(C)c3CCC(=O)O[C@@H]3OC(C(=O)O)[C@@H](O)C(O)C3O)c(CCC(=O)O)c2C)NC1=O (stereo not given in full) [BILIRUBIN MONOGLUCURONIDE]

Source: ChEMBL document CHEMBL2074539, “ATP-dependent transport of bilirubin glucuronides by the multidrug resistance protein MRP1 and its hepatocyte canalicular isoform MRP2” (Biochem J, 1997)
